Patent publication US20250171495A1, “MUTLI-TARGETED SERINE PROTEASE INHIBITORS FOR TREATMENT OF CANCER AND VIRAL INFECTION” (Washington University, priority 2023, published 2025)
Where two headings read alike, the source gives them in different places. Numbered stars: 1 amine (or outer) side, 2 acyl side, 3 side chain; on linkers, the order of the positions; unused ones are H or OH. Square brackets hold non-standard residues; d marks the D form. Peptide text beside a SMILES is read from it. X1 = N=C(N)NCCC[C@H](N[*:1])C(=O)c1nc2ccc(C(=O)[*:2])cc2s1

Columns and labels:
[1] = biological target: Thrombin (Homo sapiens, UniProt P00734); experiment: Fluorogenic assay, thrombin; assay type: biochemical
[2] = biological target: T1, matriptase (Homo sapiens, UniProt Q9Y5Y6); experiment: Fluorogenic kinetic enzyme inhibitor assay, matriptase; assay type: biochemical
T1 construct: purchased R&D Systems 3946-SEB-010
T1 sequence (Q9Y5Y6 615-855 limits assumed): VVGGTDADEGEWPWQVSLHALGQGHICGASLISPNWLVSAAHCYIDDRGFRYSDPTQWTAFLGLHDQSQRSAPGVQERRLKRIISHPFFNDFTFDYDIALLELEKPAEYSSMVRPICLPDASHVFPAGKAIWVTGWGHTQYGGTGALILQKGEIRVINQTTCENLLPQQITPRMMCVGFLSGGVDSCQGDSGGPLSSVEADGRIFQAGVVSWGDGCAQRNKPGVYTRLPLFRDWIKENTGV

[3] = biological target: T2, Factor Xa (Homo sapiens, UniProt P00742); experiment: Fluorogenic assay, Factor Xa; assay type: biochemical; conditions: read-out: Factor Xa IC50
T2 construct: TMPRSS2; Matriptase; Hepsin; HGFA; Thrombin; Factor Xa

[4] = biological target: T3, HGFA (Homo sapiens, UniProt Q04756); experiment: Fluorogenic kinetic enzyme inhibitor assay, HGFA; assay type: biochemical
T3 construct: purchased R&D Systems 1514-SE-010
T3 sequence (Q04756 408-655 limits assumed): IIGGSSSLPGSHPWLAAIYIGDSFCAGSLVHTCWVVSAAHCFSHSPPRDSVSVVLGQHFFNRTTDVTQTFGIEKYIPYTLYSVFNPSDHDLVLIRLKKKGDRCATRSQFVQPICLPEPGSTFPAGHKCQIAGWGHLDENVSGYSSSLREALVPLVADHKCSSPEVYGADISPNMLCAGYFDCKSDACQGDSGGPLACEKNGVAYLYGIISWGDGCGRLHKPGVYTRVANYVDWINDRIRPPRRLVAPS
T3 sequence (Q04756 373-407 partner limits assumed): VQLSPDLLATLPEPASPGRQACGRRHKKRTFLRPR

[5] = biological target: TMPRSS2 (Homo sapiens, UniProt O15393); experiment: Fluorogenic kinetic enzyme inhibitor assay, TMPRSS2; assay type: biochemical; set-up: purchased Cusabio Technology CSB-YP023924HU
[6] = biological target: T4, hepsin (Homo sapiens, UniProt P05981); experiment: Fluorogenic kinetic enzyme inhibitor assay, hepsin; assay type: biochemical
T4 construct: purchased R&D Systems 4776-SE-010

[7] = test system: SARS-CoV-2; assay type: cell-based; set-up: unit not given here
[8] = 30 min incubation, Boc-QLR-AMC at Km, read-out: HGFA IC50
[9] = 30 min incubation, Boc-QAR-AMC at Km, read-out: TMPRSS2 IC50

T2 sequence (P00742 235-488 limits assumed): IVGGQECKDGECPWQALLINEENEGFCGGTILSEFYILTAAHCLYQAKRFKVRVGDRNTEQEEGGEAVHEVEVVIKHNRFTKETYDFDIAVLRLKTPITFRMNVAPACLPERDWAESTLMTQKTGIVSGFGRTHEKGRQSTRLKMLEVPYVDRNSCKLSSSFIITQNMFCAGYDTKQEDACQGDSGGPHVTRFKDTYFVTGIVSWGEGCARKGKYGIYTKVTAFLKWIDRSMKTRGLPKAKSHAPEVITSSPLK
T2 sequence (P00742 41-179 partner limits assumed): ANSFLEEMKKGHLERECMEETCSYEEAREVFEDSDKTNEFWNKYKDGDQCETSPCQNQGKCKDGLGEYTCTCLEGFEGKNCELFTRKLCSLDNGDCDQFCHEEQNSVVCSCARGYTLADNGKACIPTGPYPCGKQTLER
T4 sequence (P05981 163-417 limits assumed): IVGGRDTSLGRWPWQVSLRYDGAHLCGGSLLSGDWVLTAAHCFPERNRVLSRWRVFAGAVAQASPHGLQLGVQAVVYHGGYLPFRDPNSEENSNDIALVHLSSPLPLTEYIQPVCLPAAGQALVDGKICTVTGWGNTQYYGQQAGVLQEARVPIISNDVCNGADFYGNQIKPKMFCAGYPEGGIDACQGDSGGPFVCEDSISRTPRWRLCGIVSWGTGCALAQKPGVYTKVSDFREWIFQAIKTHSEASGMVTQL
T4 sequence (P05981 1-162 partner limits assumed): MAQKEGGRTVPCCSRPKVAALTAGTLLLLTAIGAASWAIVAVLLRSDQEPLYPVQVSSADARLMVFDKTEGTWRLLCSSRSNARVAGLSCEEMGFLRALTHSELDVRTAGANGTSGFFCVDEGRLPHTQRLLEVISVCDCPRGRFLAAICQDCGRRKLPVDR
TMPRSS2, sequence (O15393 106-492 limits assumed): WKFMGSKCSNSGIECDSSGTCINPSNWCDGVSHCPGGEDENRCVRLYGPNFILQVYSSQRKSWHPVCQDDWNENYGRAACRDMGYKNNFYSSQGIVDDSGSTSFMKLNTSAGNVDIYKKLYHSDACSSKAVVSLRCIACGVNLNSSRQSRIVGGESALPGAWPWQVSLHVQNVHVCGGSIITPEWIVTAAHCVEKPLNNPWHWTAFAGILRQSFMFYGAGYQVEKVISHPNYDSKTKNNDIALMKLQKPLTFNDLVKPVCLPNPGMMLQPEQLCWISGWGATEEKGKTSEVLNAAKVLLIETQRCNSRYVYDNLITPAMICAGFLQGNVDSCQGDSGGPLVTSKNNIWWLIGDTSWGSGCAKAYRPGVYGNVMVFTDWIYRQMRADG

Structure (SMILES) | IC50 [1] | IC50 ([2]; read-out: Matriptase IC50) | IC50 [3] | IC50 ([4]; read-out: HGFA IC50) | IC50 ([6]; read-out: Hepsin IC50) | IC50 [2] | IC50 [4] | IC50 ([5]; read-out: TMPRSS2 IC50) | further results
CC(=O)N[C@H]1CC(=O)NCCCC[C@@H](C(=O)O)NC(=O)[C@H](CC(C)C)NC1=O | – | – | – | – | – | – | – | – | ring closure, yield of all isomers (from CC(=O)N[C@@H](CC(=O)O)C(=O)N[C@@H](CC(C)C)C(=O)N[C@@H](CCCCN)C(=O)O, amide bond, EDCI/HOBt/iPr2NEt, DMF, 21.25 mM, 25.0 °C, 16.0 h, 9 steps): 59.1%
COC(=O)[C@@H]1CC=CCOc2ccc(cc2)C[C@H](NC(C)=O)C(=O)N[C@@H](CC(C)C)C(=O)N1 [Ac-cyclo-(L) Tyr-Leu-allyl-OMe] | – | – | – | – | – | – | – | – | ring closure, yield of all isomers (from C=CCOc1ccc(C[C@H](NC(C)=O)C(=O)N[C@@H](CC(C)C)C(=O)N[C@@H](CC=C)C(=O)OC)cc1, rcm bond, Grubbs 2nd generation catalyst, DCM, 1.28 mM, 40.0 °C, 18.0 h): 65%
CC(=O)N[C@H]1CC(=O)NCCCC[C@@H](C(=O)N[C@@H](CCCNC(=N)N)C(=O)c2nc3ccccc3s2)NC(=O)[C@H](CC(C)C)NC1=O [VD2173, Ac-Cyclo(DLK)—R-ketobenzothiazole] | 8140 nM | 2.6 nM | 2050 nM | 8520 nM | 19 nM | – | – | – | IC50 [5]: 2.14 nM; SARS-CoV-2 Calu-3- titer (0.01 uM) [7]: 11; SARS-CoV-2 Calu-3 titer (0.1 uM) [7]: 17; SARS-CoV-2 Calu-3 titer (1 uM) [7]: 57
CC(=O)N[C@H]1Cc2ccc(cc2)OC/C=C\C[C@@H](C(=O)N[C@@H](CCCNC(=N)N)C(=O)c2nc3ccccc3s2)NC(=O)[C@@H](Cc2c[nH]c3ccccc23)NC1=O [VD5027, N-[(S)-1-[(1,3-benzothiazol-2-yl)carbonyl]-4-guanidinobutyl]-(4Z,7S,10R,13S)-13-acetylamino-10-[(3-indolyl)methyl]-9,12-dioxo-2-oxa-8,11-diazabicyclo[13.2.2]nonadeca-1(17),4,15,18-tetraene-7-carboxamide] | 19900 nM | – | 1360 nM | – | – | – | – | – | IC50 ([2]; 30 min incubation, Boc-QAR-AMC at Km, read-out: Matriptase IC50): 5.68 nM; IC50 [4, 8]: 4.58 nM; IC50 [5, 9]: 0.978 nM; IC50 ([6]; 30 min incubation, Boc-QAR-AMC at Km, read-out: Hepsin IC50): 0.693 nM
CC(=O)N[C@H]1Cc2ccc(cc2)Oc2cccc(c2)C[C@@H](C(=O)N[C@@H](CCCNC(=N)N)C(=O)c2nc3ccccc3s2)NC(=O)[C@H](CC(C)C)NC1=O [VD5064B, N-[(S)-1-[(1,3-benzothiazol-2-yl)carbonyl]-4-guanidinobutyl]-(9S,12S,15S)-15-acetylamino-12-isobutyl-11,14-dioxo-2-oxa-10,13-diazatricyclo[15.2.2.1^3,^7]docosa-1(19),3,5,7(22),17,20-hexaene-9-carboxamide] | > 20000 nM | 90 nM | 955 nM | – | 0.168 nM | – | – | – | IC50 [4, 8]: 61.4 nM; IC50 [5, 9]: 11 nM
CC(=O)N[C@@H](CO)C(=O)N[C@@H](CCCCN)C(=O)N[C@@H](Cc1ccccc1)C(=O)N[C@@H](CCCNC(=N)N)C(=O)c1nccs1 [ZFH6095, N-[(S)-1-[N-(S)-4-guanidino-1-[(1,3-thiazol-2-yl)carbonyl]butylcarbamoyl]-2-phenylethyl](S)-2-[(S)-2-acetylamino-3-hydroxypropionylamino]-6-aminohexanamide] | > 20000 nM | – | 1060 nM | – | 17 nM | 6.1 nM | 114 nM | 7.89 nM | –
CC(=O)N[C@@H](CCCCN)C(=O)N[C@@H](CCC(N)=O)C(=O)N[C@@H](Cc1ccccc1)C(=O)N[C@@H](CCCNC(=N)N)C(=O)c1nccs1 [ZFH6101, N-[(S)-1-[N-(S)-4-guanidino-1-[(1,3-thiazol-2-yl)carbonyl]butylcarbamoyl]-2-phenylethyl](S)-2-[(S)-1-acetylamino-5-aminopentylcarbonylamino] glutaramide] | > 20000 nM | – | 158 nM | 116 nM | 1.2 nM | 1.4 nM | – | 28.9 nM | –
CC(=O)N[C@@H](Cc1ccccc1)C(=O)N[C@@H](CC(C)C)C(=O)N[C@@H](Cc1ccccc1)C(=O)N[C@@H](CCCNC(=N)N)C(=O)c1nc2ccccc2s1 [ZFH7063, N-[(S)-1-[N-(S)-1-[(1,3-benzothiazol-2-yl)carbonyl]-4-guanidinobutylcarbamoyl]-2-phenylethyl](S)-2-[(S)-2-acetylamino-3-phenylpropionylamino]-4-methylvaleramide] | > 20000 nM | – | 26 nM | – | – | 7.2 nM | 228 nM | 3 nM | IC50 [6]: 2.9 nM
CC(=O)N[C@@H](Cc1c[nH]c2ccccc12)C(=O)N[C@@H](CC(C)C)C(=O)N[C@@H](Cc1ccccc1)C(=O)N[C@@H](CCCNC(=N)N)C(=O)c1nc2ccccc2s1 [ZFH7064, N-[(S)-1-[N-(S)-1-[(1,3-benzothiazol-2-yl)carbonyl]-4-guanidinobutylcarbamoyl]-2-phenylethyl](S)-2-[(S)-2-acetylamino-3-(3-indolyl)propionylamino]-4-methylvaleramide] | > 20000 nM | – | 2 nM | – | – | 12 nM | 266 nM | 0.092 nM | IC50 [6]: 0.69 nM
CC(=O)N[C@@H](CO)C(=O)N[C@@H](CCCCN)C(=O)N[C@@H](CC(C)C)C(=O)N[C@@H](CCCNC(=N)N)C(=O)c1nc2ccc(C(=O)N[C@H](C(N)=O)C(C)C)cc2s1 [ZFH7116, N-[(S)-1-carbamoyl-2-methylpropyl]-2-[(S)-2-[(S)-2-[(S)-1-[(S)-2-acetylamino-3-hydroxypropionylamino]-5-aminopentylcarbonyl-amino]-4-methylvalerylamino]-5-guanidinovaleryl]-1,3-benzothiazole-6-carboxamide] (Ac-SKL[X1]V-NH2) | 7530 nM | 14 nM | 514 nM | 23 nM | 1 nM | – | – | – | IC50 [5]: 2.5 nM
